From patent US11744791B2, “Cosmetic composition comprising amide-based compound” (Neopharm Co., Ltd., priority 2020, dated 2023)

How the values were obtained:
filaggrin = assay: Expression level of filaggrin gene in keratinocytes (Real-Time PCR); format: cell-based, human; conditions: sample 100 μM, 24 hours
Procedure: (§1) To determine effects of the samples of Examples and Comparative Examples of the present invention on promotion of expression of moisturizing factors, expression levels of filaggrin and loricrin were measured.
(§2) Specifically, keratinocytes commercially available from Invitrogen Corp. were cultured for a predetermined period of time in an EpiLife medium (keratinocyte growth media:keratinocyte growth medium) supplemented with a human keratinocyte growth supplement (HKGS), subcultured three times, and then used. The keratinocytes which were subcultured 3 times were cultured to a confluence of 70 to 80% in a 6-well plate, and each of the wells was separately treated with each of the samples. Thereafter, the cells were cultured for a total of 24 hours. RNA of the keratinocytes was extracted from the cultured cells using an easy BLUE reagent, and cDNA was synthesized using a SuperScript reverse transcriptase III kit. A 7500 Fast Real-Time PCR for genetic comparison was performed using a 2×TaqMan universal PCR mixture (10 μL), a 20×TaqMan expression assay mix (1 μL), cDNA (50 ng), and primers (Filaggrin: Hs00856927_g1*, Loricrin: Hs01894962_s1*). Also, a sample treated with 10 μM IGF-1 was used as the positive control, and the control in which the cells were not treated with the sample was used as the comparison group.

loricrin = assay: Expression level of loricrin gene in keratinocytes (Real-Time PCR); format: cell-based, human; conditions: sample 100 μM, 24 hours
Procedure: as §1, §2

PPAR-γ = assay: Analysis of expression level of PPAR-γ (Western blot) in sebocytes; format: cell-based; conditions: human sebocytes, 24 hours
Procedure: An expression level of PPAR-γ was determined through Western blot in Examples and Comparative Examples of the present invention.
Specifically, human sebocytes were cultured in a 12-well plate containing a Dulbecco's modified eagle medium (DMEM)/F12 (1:1) medium supplemented with 10% fetal bovine serum (FBS) to attach 1.5×10^5 (1 mL/well) sebocytes to the 12-well plate. The sebocytes were cultured for 24 hours, and the medium was replaced with a serum-free medium. Then, an experimental group in which the cells were treated with each of the compounds of Examples or Comparative Examples was cultured for 24 hours, and the cells were then recovered. Thereafter, each of these samples was subjected to Western blot to analyze an expression level of PPAR-γ in the sebocytes. A sample (100 μM) of Example 1 or 2 or Comparative Example 1 or 2 including the amide-based compound having a structure shown in the following Table 1 was used as the sample. Also, a sample treated with 10 μM IGF-1 was used as the positive control, and the control in which the cells were not treated with the sample was used as the comparison group.

CD44 = assay: Analysis of expression level of CD44 in adipose tissue-derived mesenchymal stem cells; format: cell-based, human; conditions: hADSCs, sample 100 μM
Procedure: For flow cytometric analysis of the adipose tissue-derived stem cells of Examples and Comparative Examples of the present invention, an expression level of CD44 was measured. For this purpose, each of the samples was added to each medium. A sample (100 μM) of Example 1 or 2 or Comparative Example 1 or 2 including the amide-based compound having a structure shown in the following Table 1. Also, a sample treated with 10 μM IGF-1 was used as the positive control, and the control in which the cells were not treated with the sample was used as the comparison group.
Specifically, RNA was isolated from human adipose tissue-derived mesenchymal stem cells (hADSCs) according to the manufacturer's instructions using an easy BLUE reagent. The isolated RNA was dissolved in distilled water supplemented with diethyl procarbonate (DEPC), and the absorbance was measured at 260 nm, and a concentration of the RNA was quantified, and then used for experiments. Then, an expression level of CD44 in the adipose tissue-derived stem cells was analyzed.

Compound: CCCCCCCCCC(=O)NC(CO)CO [Example 1, N-(2-hydroxy-1-(hydroxymethyl)ethyl)decanamide]
- enhanced expression level of filaggrin, compared to the control (filaggrin): ≥ 300%
- enhanced expression level of loricrin, compared to the control (loricrin): ≥ 400%
- effect of improving the expression of PPAR-γ (PPAR-γ; sample 100 μM): 128.4%

Compound: IGF-1: positive control, sample treated with 10 μM IGF-1 [reference compound]
- expression of PPAR-γ (in words) (PPAR-γ; IGF-1 10 μM, samples 100 μM): promoted

Compound: CCCCCCCC(=O)NCCO [Comparative Example 2, N-(2-hydroxyethyl)octanamide, reference compound]
- expression level of CD44 (in words), compared to the control (CD44): lower expression level of CD44
- inhibited the expression of PPAR-γ, compared to the control (PPAR-γ; sample 100 μM): 75.5%

Compound: CCCCCC(=O)NCC(O)CO (stereo not shown) [Example 2, N-(2,3-dihydroxypropyl)hexanamide]
- effect of improving the expression of PPAR-γ (PPAR-γ; sample 100 μM): 140.8%
